Source: ChEMBL document CHEMBL3639303, “Organic compounds” (2013)

Target: T1, Renin (Homo sapiens, UniProt P00797)
T1 sequence (P00797 whole entry): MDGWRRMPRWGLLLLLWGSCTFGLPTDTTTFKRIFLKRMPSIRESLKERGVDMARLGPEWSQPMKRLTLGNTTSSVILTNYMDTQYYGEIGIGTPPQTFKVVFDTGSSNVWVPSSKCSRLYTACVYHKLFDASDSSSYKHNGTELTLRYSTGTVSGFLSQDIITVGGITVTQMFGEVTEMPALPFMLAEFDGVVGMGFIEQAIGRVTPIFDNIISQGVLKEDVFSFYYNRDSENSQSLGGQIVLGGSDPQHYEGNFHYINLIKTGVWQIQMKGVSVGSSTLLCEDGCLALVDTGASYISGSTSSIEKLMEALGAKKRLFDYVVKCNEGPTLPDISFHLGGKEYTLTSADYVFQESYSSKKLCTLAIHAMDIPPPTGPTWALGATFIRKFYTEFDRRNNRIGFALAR
Experiment: FRET Assay: Inhibition activity of renin using FRET assay.

Row | IC50 [nM] | SMILES
1 | 0.9 | CCOC[C@@H](CC(C)C)NC(=O)[C@@H]1CNC[C@H](C(=O)N(c2cc(OC)c(C(C)C)cn2)C2CC2)C1
2 | 0.6 | CCOC[C@@H](CC(C)C)NC(=O)[C@@H]1CNC[C@H](C(=O)N(c2cc(OCC)c(CC)cn2)C2CC2)C1
3 | 2 | CCOC[C@@H](CC(C)C)NC(=O)[C@@H]1CNC[C@H](C(=O)N(c2ccc(C(C)C)cn2)C2CC2)[C@@H]1O
4 | 0.4 | CCOC[C@@H](CC(C)C)NC(=O)[C@@H]1CNC[C@H](C(=O)N(c2cc(OCCCOC)c(C(C)C)cn2)C2CC2)[C@@H]1O
5 | 0.9 | CCOC[C@H](NC(=O)[C@@H]1CNC[C@H](C(=O)N(c2ccc(C(C)C)cn2)C2CC2)C1)C(C)C
6 | 0.3 | CCOC[C@@H](NC(=O)[C@@H]1CNC[C@H](C(=O)N(c2cc(OC)c(C(C)C)cn2)C2CC2)C1)C1CCCCC1
7 | 0.8 | CCOC[C@@H](CC(C)C)NC(=O)[C@@H]1CNC[C@H](C(=O)N(CC(C)C)c2cc(OC)c(C(C)C)cn2)C1
8 | 2 | CCOC[C@@H](CC(C)C)NC(=O)[C@@H]1CNC[C@H](C(=O)N(c2ccc(C(C)(C)OC)cn2)C2CC2)[C@@H]1O
